One may read the IC50 as the concentration that gives 50% inhibition. Broadly, the melting point is the temperature, or range, at which the solid turns liquid.

The values below come from US6933312B2, “Pyrazole derivatives” (Agouron Pharmaceuticals, Inc., priority 2002, dated 2005).

Series [1] deals with T1, purified recombinant HIV-1 reverse transcriptase (Human immunodeficiency virus type 1 group M subtype B, UniProt P04585).
T1 construct: purified recombinant HIV-1 reverse transcriptase (RT, EC, 2.7.7.49); made in house; host or cells: Escherichia coli
The series is described as follows: Inhibition of HIV-1 Reverse Transcriptase Enzyme. Format: biochemical. To be noted: Poly(rA)-oligo(dT) [3H]-SPA or [3H]-flashplate enzyme assay; 5% final DMSO. An excerpt: The activity of the compounds of the invention as reverse transcriptase inhibitors may be measured using the following assay.
Inhibition of HIV-1 Reverse Transcriptase Enzyme
Using purified recombinant HIV-1 reverse transcriptase (RT, EC, 2.7.7.49) obtained by expression in Escherichia Coli, a 96-well plate assay system is established for assaying a large number of samples using either the Poly(rA)-oligo(dT) Reverse Transcriptase [3H]-SPA enzyme assay system (Amersham NK9020) or the [3H]-flashplate enzyme assay system (NEN—SMP 103) and following the manufacturer's recommendations. The compounds are dissolved in 100% DMSO and diluted with the appropriate buffer to a 5% final DMSO concentration. The inhibitory activity is expressed in percent inhibition relative to DMSO control.

For the compound `Cc1n[nH]c(CN2Cc3ccccc3C2=O)c1Oc1cc(C#N)cc(C#N)c1` [Example 4, 5-[3-Methyl-5-(1-oxo-1,3-dihydro-isoindol-2-ylmethyl)-1H-pyrazol-4-yloxy]-isophthalonitrile], the melting point lay in the range of 247 to 248 °C. Also, the IC50 in series [1] is 505 nM.

For the compound `Cc1n[nH]c(CN2Cc3ccccc3C2=O)c1Oc1cc(Cl)cc(C#N)c1` [Example 1, 3-Chloro-5-[3-methyl-5-(1-oxo-1,3-dihydro-isoindol-2ylmethyl)-1H-pyrazol-4-yloxy]-benzonitrile], the concentration for half-maximal inhibition (IC50) in series [1] is 76 nM.

On to `Cc1n[nH]c(CN2Cc3ncccc3C2=O)c1Oc1cc(Cl)cc(C#N)c1`, for which the melting point was 225 to 227 °C.
